According to US7858806B2, “Crystal form of 5-hydroxy-1-methylhydantoin” (Nippon Zoki Pharmaceutical Co., Ltd., priority 2002, dated 2010):
Entries after “also recorded” stand apart in the source; their conditions may differ. Values belong to the compound of their own block, whether it stands above or below them.

Key:
Assay type in all cases: physicochemical
[1] = Measurement of bulk density (graduated cylinder, before and after tight packing); details: 40 g in graduated cylinder; for Bulk Density After Tight Packing: after patting until volume unchanged
Protocol: Each 40 g of the I-form crystals produced in Reference Example 1 and the II-form crystals produced in Example 2 were placed in a graduated cylinder to measure the volume whereby bulk density was calculated. After that, each graduated cylinder was lightly patted by hand under the same condition until the volume of the dry powder became unchanged so that the crystals were tightly packed. The volume after the tight packing was measured and bulk density was calculated.

[2] = Stability of the crystal form
[3] = Adhesion onto solid surface during handling; details: II-form compared with I-form crystals, after various handlings
Protocol: In addition, in the II-form crystals of the present invention, the bulk density is higher than in the I-form crystals and the volume for the same weight is small whereby it is now possible to manufacture small tablets and so to provide the tablets which are easily administered to patients. The advantage of high bulk density is also advantageous in terms of storage and handling when production is conducted in an industrial scale. Further, it has been found after various handlings of both II-form crystals and I-form crystals that adhesion onto the solid surface such as glass wall is lower in the II-form crystals than in the I-form crystals. Accordingly, in the case of the II-form crystals, loss during the manufacture can be reduced and labor such as cleaning and checking for removal of adhered things to the manufacturing devices and apparatuses can be reduced as well.

[4] = Solubility in water

- Bulk Density After Tight Packing ([1]; listed as I-form Crystals): 0.46 g/mL
- Bulk Density Before Tight Packing ([1]; listed as I-form Crystals): 0.35 g/mL
SMILES: CN1C(=O)NC(=O)C1O (stereo not shown) [I-form crystals, 5-hydroxy-1-methylimidazolidin-2,4-dione, reference compound]

- Bulk Density After Tight Packing ([1]; listed as II-form Crystals): 0.64 g/mL
- Bulk Density Before Tight Packing ([1]; listed as II-form Crystals): 0.54 g/mL
- stability [2]: sufficient stability
- adhesion onto the solid surface such as glass wall [3]: lower
SMILES: CN1C(=O)NC(=O)C1O (stereo not shown) [II-form crystals, 5-hydroxy-1-methylimidazolidin-2,4-dione]

SMILES: CN1C(=O)NC(=O)C1O (stereo not shown) [5-hydroxy-1-methylhydantoin, 5-hydroxy-1-methylimidazolidin-2,4-dione]
- solubility in water [4]: very highly soluble in water; also recorded: very easily soluble in water
